According to patent US6737383B1, “Herbicidal oxadiazolidines” (priority 1999, dated 2004):

Experiments:
blackgrass = assay: Test B pre/postemergence blackgrass; type: in vivo, Alopecurus myosuroides
Procedure, shortened: (§1)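 Test chemicals in a non-phytotoxic solvent mixture with surfactant were sprayed preemergence onto planted seeds and postemergence onto plants 2 to 18 cm tall (1- to 4-leaf stage). After twelve to sixteen days in a greenhouse, injury was visually rated against untreated controls from 0 (no effect) to 10 (complete control).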

surinam grass = assay: Test B pre/postemergence surinam grass; type: in vivo, Brachiaria decumbens
Procedure, shortened: as §1

cocklebur = assay: Test B pre/postemergence cocklebur; type: in vivo, Xanthium strumarium
Procedure, shortened: as §1

corn = assay: Test B pre/postemergence corn; type: in vivo, Zea mays
Procedure, shortened: as §1

crabgrass = assay: Test B pre/postemergence crabgrass; type: in vivo, Digitaria sanguinalis
Procedure, shortened: as §1

giant foxtail = assay: Test B pre/postemergence giant foxtail; type: in vivo, Setaria faberii
Procedure, shortened: as §1

morningglory = assay: Test B pre/postemergence morningglory; type: in vivo, Ipomoea hederacea; details: for Plant response rating, Morningglory: scale of 0 to 10 where 0 is no effect and 10 is complete control
Procedure, shortened: as §1

pigweed = assay: Test B pre/postemergence pigweed; type: in vivo, Amaranthus retroflexus; details: for Plant response rating, Redroot pigweed: scale of 0 to 10 where 0 is no effect and 10 is complete control
Procedure, shortened: as §1

rape = assay: Test B pre/postemergence rape; type: in vivo, Brassica napus; details: for Plant response rating, Rape: scale of 0 to 10 where 0 is no effect and 10 is complete control
Procedure, shortened: as §1

sugar beet = assay: Test B pre/postemergence sugar beet; type: in vivo, Beta vulgaris; details: for Plant response rating, Sugarbeets: scale of 0 to 10 where 0 is no effect and 10 is complete control
Procedure, shortened: as §1

velvetleaf = assay: Test B pre/postemergence velvetleaf; type: in vivo, Abutilon theophrasti; details: for Plant response rating, Velvetleaf: scale of 0 to 10 where 0 is no effect and 10 is complete control
Procedure, shortened: as §1

wheat = assay: Test B pre/postemergence wheat; type: in vivo, Triticum aestivum; details: for Plant response rating, Wheat: scale of 0 to 10 where 0 is no effect and 10 is complete control
Procedure, shortened: as §1

purple nutsedge = assay: Test B pre/postemergence purple nutsedge; type: in vivo, Cyperus rotundus; details: for Plant response rating, Nutsedge: scale of 0 to 10 where 0 is no effect and 10 is complete control
Procedure, shortened: as §1

rice = assay: Test B flood test rice; type: in vivo, Oryza sativa
Procedure, shortened: (§2)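 Flood test on plants grown to the 2-leaf stage; treated plants kept in greenhouse twelve to sixteen days, then visually rated against controls on a 0 (no effect) to 10 (complete control) scale.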

smallflower flatsedge = assay: Test B flood test smallflower flatsedge; type: in vivo, Cyperus difformis
Procedure, shortened: as §2

duck salad = assay: Test B flood test duck salad; type: in vivo, Heteranthera limosa
Procedure, shortened: as §2

[1] = Postemergence, Rate 250 g/ha, scale 0 to 10
[2] = Postemergence, Rate 500 g/ha, scale of 0 to 10 where 0 is no effect and 10 is complete control
[3] = Preemergence, Rate 62 g/ha, scale of 0 to 10 where 0 is no effect and 10 is complete control
[4] = Preemergence, Rate 125 g/ha, scale of 0 to 10 where 0 is no effect and 10 is complete control
[5] = Preemergence, Rate 250 g/ha, scale 0 to 10, 0 is no effect, 10 is complete control
[6] = Preemergence, Rate 500 g/ha, scale 0 to 10, 0 is no effect, 10 is complete control
[7] = Rate 62 g/ha, Postemergence, scale 0 to 10 (0 no effect, 10 complete control)
[8] = Rate 125 g/ha, Postemergence, scale 0 to 10, 0 is no effect, 10 is complete control
[9] = Rate 62 g/ha, flood test species, Pre-emergence, visual evaluation after twelve to sixteen days
[10] = Rate 125 g/ha, under heading Pre-emergence, flood test species, visual evaluation after twelve to sixteen days
[11] = Rate 250 g/ha, Pre-emergence (flood test species), scale 0 to 10, 0 is no effect, 10 is complete control
[12] = Rate 500 g/ha, Pre-emergence, flood test species, scale 0 to 10 (0 no effect, 10 complete control)

## CC(C)N(C(=O)n1oc(=O)n(CO)c1=O)c1ccc(Cl)cc1 [Compound 457]
blackgrass; [1]
  Blackgrass plant response rating: 0
blackgrass; [2]
  Blackgrass plant response rating: 0
blackgrass; [3]
  Plant response rating, Blackgrass: 0
blackgrass; [4]
  Plant response rating, Blackgrass: 0
blackgrass; [5]
  Blackgrass plant response rating: 0
blackgrass; [6]
  Blackgrass plant response rating: 0
blackgrass; [7]
  Blackgrass plant response rating: 0
blackgrass; [8]
  Blackgrass plant response rating: 0
Surinam grass; Postemergence, Rate 250 g/ha, scale 0 to 10, 0 no effect, 10 complete control
  B. signalgrass plant response rating: 0
Surinam grass; [2]
  B. signalgrass plant response rating: 0
Surinam grass; [3]
  Plant response rating, B. signalgrass: 0
Surinam grass; [4]
  Plant response rating, B. signalgrass: 0
Surinam grass; [5]
  B. signalgrass plant response rating: 0
Surinam grass; [6]
  B. signalgrass plant response rating: 0
Surinam grass; [7]
  B. signalgrass plant response rating: 0
Surinam grass; [8]
  B. signalgrass plant response rating: 0
cocklebur; [1]
  Cocklebur plant response rating: 0
cocklebur; [2]
  Cocklebur plant response rating: 0
cocklebur; [3]
  Plant response rating, Cocklebur: 0
cocklebur; [4]
  Plant response rating, Cocklebur: 0
cocklebur; [5]
  Cocklebur plant response rating: 0
cocklebur; [6]
  Cocklebur plant response rating: 0
cocklebur; [7]
  Cocklebur plant response rating: 0
cocklebur; [8]
  Cocklebur plant response rating: 0
corn; [1]
  Corn plant response rating: 0
corn; [2]
  Corn plant response rating: 0
corn; [3]
  Plant response rating, Corn: 0
corn; [4]
  Plant response rating, Corn: 0
corn; [5]
  Corn plant response rating: 0
corn; [6]
  Corn plant response rating: 0
corn; [7]
  Corn plant response rating: 0
corn; [8]
  Corn plant response rating: 0
crabgrass; [1]
  Crabgrass plant response rating: 0
crabgrass; [2]
  Crabgrass plant response rating: 0
crabgrass; [3]
  Plant response rating, Crabgrass: 0
crabgrass; [4]
  Plant response rating, Crabgrass: 0
crabgrass; [5]
  Crabgrass plant response rating: 0
crabgrass; [6]
  Crabgrass plant response rating: 0
crabgrass; [7]
  Crabgrass plant response rating: 0
crabgrass; [8]
  Crabgrass plant response rating: 0
Giant foxtail; [1]
  Giant foxtail plant response rating: 0
Giant foxtail; [2]
  Giant foxtail plant response rating: 0
Giant foxtail; [3]
  Plant response rating, Giant foxtail: 0
Giant foxtail; [4]
  Plant response rating, Giant foxtail: 0
Giant foxtail; [5]
  Giant foxtail plant response rating: 0
Giant foxtail; [6]
  Giant foxtail plant response rating: 8
Giant foxtail; [7]
  Giant foxtail plant response rating: 0
Giant foxtail; [8]
  Giant foxtail plant response rating: 0
morningglory; [1]
  Morningglory plant response rating: 0
morningglory; Preemergence, Rate 62 g/ha
  Plant response rating, Morningglory: 0
morningglory; Preemergence, Rate 125 g/ha
  Plant response rating, Morningglory: 0
morningglory; [5]
  Morningglory plant response rating: 0
morningglory; [6]
  Morningglory plant response rating: 0
morningglory; [7]
  Morningglory plant response rating: 0
morningglory; [8]
  Morningglory plant response rating: 0
pigweed; [1]
  Redroot pigweed plant response rating: 0
pigweed; Preemergence, Rate 62 g/ha
  Plant response rating, Redroot pigweed: 0
pigweed; Preemergence, Rate 125 g/ha
  Plant response rating, Redroot pigweed: 0
pigweed; [5]
  Redroot pigweed plant response rating: 0
pigweed; [6]
  Redroot pigweed plant response rating: 0
pigweed; [7]
  Redroot pigweed plant response rating: 0
pigweed; [8]
  Redroot pigweed plant response rating: 0
rape; [1]
  Rape plant response rating: 0
rape; Preemergence, Rate 62 g/ha
  Plant response rating, Rape: 0
rape; Preemergence, Rate 125 g/ha
  Plant response rating, Rape: 0
rape; [5]
  Rape plant response rating: 0
rape; [6]
  Rape plant response rating: 0
rape; [7]
  Rape plant response rating: 0
rape; [8]
  Rape plant response rating: 0
Sugar beet; [1]
  Sugarbeets plant response rating: 0
Sugar beet; Preemergence, Rate 62 g/ha
  Plant response rating, Sugarbeets: 0
Sugar beet; Preemergence, Rate 125 g/ha
  Plant response rating, Sugarbeets: 0
Sugar beet; [5]
  Sugarbeets plant response rating: 0
Sugar beet; [6]
  Sugarbeets plant response rating: 0
Sugar beet; [7]
  Sugarbeets plant response rating: 0
Sugar beet; [8]
  Sugarbeets plant response rating: 0
velvetleaf; [1]
  Velvetleaf plant response rating: 0
velvetleaf; Preemergence, Rate 62 g/ha
  Plant response rating, Velvetleaf: 0
velvetleaf; Preemergence, Rate 125 g/ha
  Plant response rating, Velvetleaf: 0
velvetleaf; [5]
  Velvetleaf plant response rating: 0
velvetleaf; [6]
  Velvetleaf plant response rating: 0
velvetleaf; [7]
  Velvetleaf plant response rating: 0
velvetleaf; [8]
  Velvetleaf plant response rating: 0
wheat; [1]
  Wheat plant response rating: 0
wheat; Preemergence, Rate 62 g/ha
  Plant response rating, Wheat: 0
wheat; Preemergence, Rate 125 g/ha
  Plant response rating, Wheat: 0
wheat; [5]
  Wheat plant response rating: 0
wheat; [6]
  Wheat plant response rating: 0
wheat; [7]
  Wheat plant response rating: 0
wheat; [8]
  Wheat plant response rating: 0
Purple nutsedge; [1]
  Nutsedge plant response rating: 0
Purple nutsedge; Preemergence, Rate 62 g/ha
  Plant response rating, Nutsedge: 0
Purple nutsedge; Preemergence, Rate 125 g/ha
  Plant response rating, Nutsedge: 0
Purple nutsedge; [5]
  Nutsedge plant response rating: 0
Purple nutsedge; [6]
  Nutsedge plant response rating: 0
Purple nutsedge; [7]
  Nutsedge plant response rating: 0
Purple nutsedge; [8]
  Nutsedge plant response rating: 0
rice; [9]
  Plant response rating, Rice (0 to 10 scale, 0 is no effect, 10 is complete control): 0
rice; [10]
  Rice plant response rating (0 to 10 scale, 0 is no effect, 10 is complete control): 0
rice; [11]
  Rice plant response rating: 0
rice; [12]
  Rice plant response rating: 0
Smallflower flatsedge; [9]
  Plant response rating, S. Flatsedge (0 to 10 scale, 0 is no effect, 10 is complete control): 0
Smallflower flatsedge; [10]
  S. Flatsedge plant response rating (0 to 10 scale, 0 is no effect, 10 is complete control): 0
Smallflower flatsedge; [11]
  S. Flatsedge plant response rating: 0
Smallflower flatsedge; [12]
  S. Flatsedge plant response rating: 0
Duck salad; [9]
  Plant response rating, Ducksalad (0 to 10 scale, 0 is no effect, 10 is complete control): 0
Duck salad; [10]
  Ducksalad plant response rating (0 to 10 scale, 0 is no effect, 10 is complete control): 0
Duck salad; [11]
  Ducksalad plant response rating: 0
Duck salad; [12]
  Ducksalad plant response rating: 0
